One experiment addresses T1, CDK2/cyclin A (Homo sapiens, UniProt P24941).
T1 construct: made in house; host or cells: CDK2: insect cells (baculovirus); cyclin A: E. coli
The experiment in a line: Inhibition of CDK2/cyclin A retinoblastoma kinase activity (Ki; % inhibition). The class given is biochemical. Conditions: 0.03 μM compound. In short, it runs like this: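 Apparent Ki values came from fitting concentration-dependent activity data to competitive (or competitive tight-binding) models, and % inhibition from single 30 nM screens of library compounds. Activity was measured as ³²P/³³P incorporation from 25 μM ATP into an Rb substrate by 10 or 19 nM CDK2/delta cyclin A at 30 °C over 60–75 min, pH 7.4.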

The target in the next experiment is T2, human CDK4/cyclin D3 (Homo sapiens, UniProt P11802).
T2 construct: made in house; host or cells: insect cells co-infected with baculovirus vectors
In words: Inhibition of CDK4/cyclin D retinoblastoma kinase activity (Ki; % inhibition). It counts as biochemical. The following applies: 0.03 μM compound. In a few lines: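 Radiometric filter-binding read-out: Rb residues 386-928 phosphorylated by 5 nM CDK4/cyclin D3(1-264) from baculovirus-infected insect cells, 25 μM ATP, HEPES pH 7.4, 30 °C. Run 20 min, or 60 min for tight-binding inhibitors. Screening at 30 nM theoretical compound; apparent Ki by competitive-inhibition fitting.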

Another experiment has as its system HCT-116 cell line. The experiment in a line: Inhibition of cell growth, MTT tetrazolium salt assay. It counts as cell-based. The following applies: HCT-116 cells; for HCT-116 % Inhibition at 0.1 μM: 0.1 μM compound; for HCT-116 % Inhibition at 0.25 μM: 0.25 μM compound. In short, it runs like this:
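Growth inhibition was read as MTT-formazan absorbance at 540 nm, after 4 h with 0.2 mg/mL MTT. Before that, HCT-116 cells had been exposed 3–5 days at 37 °C to compounds in 0.5% (v/v) DMSO, added 4 h after plating. 50% and 90% inhibitory concentrations were taken from semi-log concentration–inhibition plots versus vehicle controls.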
A general note: Tetrazolium assays rely on reduction of a dye to a coloured formazan, in cell work by metabolically active cells.

T2 sequence (P11802 whole entry): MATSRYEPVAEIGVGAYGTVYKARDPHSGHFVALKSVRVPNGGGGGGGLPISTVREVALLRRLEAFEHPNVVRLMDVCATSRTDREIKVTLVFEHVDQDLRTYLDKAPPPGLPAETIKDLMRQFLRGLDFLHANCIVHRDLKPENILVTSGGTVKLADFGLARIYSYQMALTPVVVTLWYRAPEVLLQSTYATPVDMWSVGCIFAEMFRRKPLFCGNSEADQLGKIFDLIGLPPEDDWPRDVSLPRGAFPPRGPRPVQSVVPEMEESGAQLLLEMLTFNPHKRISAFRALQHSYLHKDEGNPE
T2 sequence (P30281 1-264 partner limits assumed): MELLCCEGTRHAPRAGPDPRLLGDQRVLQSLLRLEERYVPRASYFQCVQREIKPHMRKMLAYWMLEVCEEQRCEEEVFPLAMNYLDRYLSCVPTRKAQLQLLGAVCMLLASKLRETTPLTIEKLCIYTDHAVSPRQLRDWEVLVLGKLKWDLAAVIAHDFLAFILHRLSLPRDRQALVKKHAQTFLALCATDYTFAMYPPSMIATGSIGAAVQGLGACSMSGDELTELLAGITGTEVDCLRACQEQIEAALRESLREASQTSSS

On to `N#CCCNc1ccccc1NC(=O)c1ccc(Nc2nc(N)c(C(=O)c3c(F)cccc3F)s2)cc1` [Example G323], for which the “CDK2 % Inhibition at 0.03 μM” value on CDK2/cyclin A was −14%. Further, the “CDK4 % Inhibition at 0.03 μM” value on human CDK4/cyclin D3 was found to be 7%. In addition, in the experiment with HCT-116 cell line, the “HCT-116 % Inhibition at 0.1 μM” value is on record as 14% and the “HCT-116 % Inhibition at 0.25 μM” value turned out to be 72%.
The matching figures for `Nc1nc(Nc2ccc(C(=O)NCc3cccc(Cl)c3)cc2)sc1C(=O)c1c(F)cccc1F` [Example G324]: 28%, 26%, 5% and 60%.
The matching figures for `Nc1nc(Nc2ccc(C(=O)NCCCc3ccccc3)cc2)sc1C(=O)c1c(F)cccc1F` [Example G325]: 13%, 23%, 6% and 51%.
For the compound `Nc1nc(Nc2ccc(C(=O)NCCO)cc2)sc1C(=O)c1c(F)cccc1F` [Example G326], at CDK2/cyclin A, the “CDK2 % Inhibition at 0.03 μM” value was 12%. Further, on human CDK4/cyclin D3, the “CDK4 % Inhibition at 0.03 μM” value is 22%. Besides, in the experiment on HCT-116 cell line, the “HCT-116 % Inhibition at 0.1 μM” value came out at 11% and the “HCT-116 % Inhibition at 0.25 μM” value is listed as 13%.
In the case of `CC[C@H](C)[C@@H](CO)NC(=O)c1ccc(Nc2nc(N)c(C(=O)c3c(F)cccc3F)s2)cc1` [Example G327], at CDK2/cyclin A, the “CDK2 % Inhibition at 0.03 μM” value is −7%. The “CDK4 % Inhibition at 0.03 μM” value on human CDK4/cyclin D3 amounted to 11%. In addition, in the experiment on HCT-116 cell line, the “HCT-116 % Inhibition at 0.1 μM” value is 8% and the “HCT-116 % Inhibition at 0.25 μM” value is on record as 55%.
With `Nc1nc(Nc2ccc(C(=O)Nc3ccc(CCO)cc3)cc2)sc1C(=O)c1c(F)cccc1F` [Example G328], on CDK2/cyclin A, the “CDK2 % Inhibition at 0.03 μM” value turned out to be 19%. Further, the “CDK4 % Inhibition at 0.03 μM” value on human CDK4/cyclin D3 is 29%. Moreover, in the experiment with HCT-116 cell line, the “HCT-116 % Inhibition at 0.1 μM” value is given as 33% and the “HCT-116 % Inhibition at 0.25 μM” value worked out at 89%.
`CCCCC(CO)NC(=O)c1ccc(Nc2nc(N)c(C(=O)c3c(F)cccc3F)s2)cc1` (centres unmarked) [Example G329]: the “CDK2 % Inhibition at 0.03 μM” value on CDK2/cyclin A came out at 10%. Moreover, the “CDK4 % Inhibition at 0.03 μM” value on human CDK4/cyclin D3 was determined as 19%. Also, in the experiment on HCT-116 cell line, the “HCT-116 % Inhibition at 0.1 μM” value is given as 9% and the “HCT-116 % Inhibition at 0.25 μM” value was 56%.
Turning to `Cc1cc(NC(=O)c2ccc(Nc3nc(N)c(C(=O)c4c(F)cccc4F)s3)cc2)ccc1F` [Example G330], the “CDK2 % Inhibition at 0.03 μM” value at CDK2/cyclin A is listed as −1%. In addition, at human CDK4/cyclin D3, the “CDK4 % Inhibition at 0.03 μM” value is 12%. In the experiment with HCT-116 cell line, the “HCT-116 % Inhibition at 0.1 μM” value stood at 2% and the “HCT-116 % Inhibition at 0.25 μM” value was found to be 55%.
In the case of `CCCCN(CC)CCNC(=O)c1ccc(Nc2nc(N)c(C(=O)c3c(F)cccc3F)s2)cc1` [Example G331], at CDK2/cyclin A, the “CDK2 % Inhibition at 0.03 μM” value is 1%. Further, the “CDK4 % Inhibition at 0.03 μM” value at human CDK4/cyclin D3 is given as 37%. In addition, in the experiment on HCT-116 cell line, the “HCT-116 % Inhibition at 0.1 μM” value is on record as 54% and the “HCT-116 % Inhibition at 0.25 μM” value is 93%.
With `COc1cccc(CNC(=O)c2ccc(Nc3nc(N)c(C(=O)c4c(F)cccc4F)s3)cc2)c1OC` [Example G332], the “CDK2 % Inhibition at 0.03 μM” value on CDK2/cyclin A is on record as 17%. The “CDK4 % Inhibition at 0.03 μM” value at human CDK4/cyclin D3 was 14%. In the experiment with HCT-116 cell line, the “HCT-116 % Inhibition at 0.1 μM” value turned out to be 21% and the “HCT-116 % Inhibition at 0.25 μM” value was found to be 66%.
The corresponding values for `CC(C)C[C@@H](CO)NC(=O)c1ccc(Nc2nc(N)c(C(=O)c3c(F)cccc3F)s2)cc1` [Example G333] are −16%, −5%, 4% and 51%.
The matching figures for `Nc1nc(Nc2ccc(C(=O)NCCCO)cc2)sc1C(=O)c1c(F)cccc1F` [Example G334]: −2%, 8%, 6% and 41%.
The corresponding values for `CC(C)NC(=O)CN1CCN(C(=O)c2ccc(Nc3nc(N)c(C(=O)c4c(F)cccc4F)s3)cc2)CC1` [Example G335] are 2%, 21%, 3% and 42%.
As to `Nc1nc(Nc2ccc(C(=O)NCc3ccc(Cl)c(Cl)c3)cc2)sc1C(=O)c1c(F)cccc1F` [Example G336], the “CDK2 % Inhibition at 0.03 μM” value at CDK2/cyclin A stood at 36%. For the same compound, on human CDK4/cyclin D3, the “CDK4 % Inhibition at 0.03 μM” value is 36%. For the same compound, in the experiment on HCT-116 cell line, the “HCT-116 % Inhibition at 0.1 μM” value is reported as 12% and the “HCT-116 % Inhibition at 0.25 μM” value is reported as 51%.
`Nc1nc(Nc2ccc(C(=O)NCCC3=CCCCC3)cc2)sc1C(=O)c1c(F)cccc1F` [Example G337]: the “CDK2 % Inhibition at 0.03 μM” value at CDK2/cyclin A is given as 7%. For the same compound, the “CDK4 % Inhibition at 0.03 μM” value on human CDK4/cyclin D3 is 11%. Also, in the experiment with HCT-116 cell line, the “HCT-116 % Inhibition at 0.1 μM” value is given as 13% and the “HCT-116 % Inhibition at 0.25 μM” value came out at 52%.
Take `Cc1ccc(CNC(=O)c2ccc(Nc3nc(N)c(C(=O)c4c(F)cccc4F)s3)cc2)cc1C` [Example G338]: the “CDK2 % Inhibition at 0.03 μM” value on CDK2/cyclin A was 31%. Also, at human CDK4/cyclin D3, the “CDK4 % Inhibition at 0.03 μM” value was 27%. In the experiment with HCT-116 cell line, the “HCT-116 % Inhibition at 0.1 μM” value is listed as 18% and the “HCT-116 % Inhibition at 0.25 μM” value was found to be 54%.
The matching figures for `Nc1nc(Nc2ccc(C(=O)NCCCN(CCO)CCO)cc2)sc1C(=O)c1c(F)cccc1F` [Example G339]: 6%, 34%, 9% and 48%.
The corresponding values for `CCCCN(CCCCO)C(=O)c1ccc(Nc2nc(N)c(C(=O)c3c(F)cccc3F)s2)cc1` [Example G340] are −12%, 9%, 28% and 40%.
As to `Nc1nc(Nc2ccc(C(=O)Nc3ccc(Cl)cc3CO)cc2)sc1C(=O)c1c(F)cccc1F` [Example G341], on CDK2/cyclin A, the “CDK2 % Inhibition at 0.03 μM” value is listed as −11%. For the same compound, the “CDK4 % Inhibition at 0.03 μM” value on human CDK4/cyclin D3 is given as 10%. Further, in the experiment with HCT-116 cell line, the “HCT-116 % Inhibition at 0.1 μM” value came out at 23% and the “HCT-116 % Inhibition at 0.25 μM” value amounted to 93%.
Turning to `Nc1nc(Nc2ccc(C(=O)NCCC3OCCO3)cc2)sc1C(=O)c1c(F)cccc1F` [Example G342], at CDK2/cyclin A, the “CDK2 % Inhibition at 0.03 μM” value is listed as −10%. Further, the “CDK4 % Inhibition at 0.03 μM” value on human CDK4/cyclin D3 came out at 13%. Further, in the experiment on HCT-116 cell line, the “HCT-116 % Inhibition at 0.1 μM” value turned out to be 20% and the “HCT-116 % Inhibition at 0.25 μM” value was determined as 55%.
The corresponding values for `Nc1nc(Nc2ccc(C(=O)NCCc3cccnc3)cc2)sc1C(=O)c1c(F)cccc1F` [Example G343] are 1%, 12%, 27% and 71%.
The matching figures for `CCOC(CNC(=O)c1ccc(Nc2nc(N)c(C(=O)c3c(F)cccc3F)s2)cc1)OCC` [Example G344]: 25%, 18%, 24% and 50%.
Take `COc1ccc(CNC(=O)c2ccc(Nc3nc(N)c(C(=O)c4c(F)cccc4F)s3)cc2)cc1OC` [Example G345]: on CDK2/cyclin A, the “CDK2 % Inhibition at 0.03 μM” value is −2%. For the same compound, the “CDK4 % Inhibition at 0.03 μM” value at human CDK4/cyclin D3 stood at 6%. In addition, in the experiment on HCT-116 cell line, the “HCT-116 % Inhibition at 0.1 μM” value is 22% and the “HCT-116 % Inhibition at 0.25 μM” value is on record as 36%.
As for `Nc1nc(Nc2ccc(C(=O)NC3CCC(O)CC3)cc2)sc1C(=O)c1c(F)cccc1F` (centres unmarked) [Example G346], the “CDK2 % Inhibition at 0.03 μM” value on CDK2/cyclin A was 11%. Further, the “CDK4 % Inhibition at 0.03 μM” value on human CDK4/cyclin D3 worked out at 11%. For the same compound, in the experiment on HCT-116 cell line, the “HCT-116 % Inhibition at 0.1 μM” value worked out at 15% and the “HCT-116 % Inhibition at 0.25 μM” value was 52%.
Regarding `COc1ccc(NC(=O)c2ccc(Nc3nc(N)c(C(=O)c4c(F)cccc4F)s3)cc2)cc1F` [Example G347], the “CDK2 % Inhibition at 0.03 μM” value at CDK2/cyclin A was found to be 13%. Moreover, the “CDK4 % Inhibition at 0.03 μM” value at human CDK4/cyclin D3 is listed as 15%. Further, in the experiment with HCT-116 cell line, the “HCT-116 % Inhibition at 0.1 μM” value is 21% and the “HCT-116 % Inhibition at 0.25 μM” value stood at 53%.
For `CC(=O)N(C)C1CCN(C(=O)c2ccc(Nc3nc(N)c(C(=O)c4c(F)cccc4F)s3)cc2)C1` (centres unmarked) [Example G348], the “CDK2 % Inhibition at 0.03 μM” value at CDK2/cyclin A is −21%. For the same compound, the “CDK4 % Inhibition at 0.03 μM” value on human CDK4/cyclin D3 is recorded as 14%. Besides, in the experiment on HCT-116 cell line, the “HCT-116 % Inhibition at 0.1 μM” value was determined as 23% and the “HCT-116 % Inhibition at 0.25 μM” value amounted to 51%.
The matching figures for `Nc1nc(Nc2ccc(C(=O)NCCc3cccc(F)c3)cc2)sc1C(=O)c1c(F)cccc1F` [Example G349]: −6%, 11%, 31% and 48%.
With `Nc1nc(Nc2ccc(C(=O)N(CCCCO)Cc3ccccc3)cc2)sc1C(=O)c1c(F)cccc1F` [Example G351], the “CDK2 % Inhibition at 0.03 μM” value on CDK2/cyclin A is reported as 0%. For the same compound, the “CDK4 % Inhibition at 0.03 μM” value on human CDK4/cyclin D3 is listed as −1%. Further, in the experiment with HCT-116 cell line, the “HCT-116 % Inhibition at 0.1 μM” value came to 24% and the “HCT-116 % Inhibition at 0.25 μM” value is reported as 62%.
On to `Cc1ccc(NC(=O)c2ccc(Nc3nc(N)c(C(=O)c4c(F)cccc4F)s3)cc2)nc1` [Example G352], for which, on CDK2/cyclin A, the “CDK2 % Inhibition at 0.03 μM” value was 4%. For the same compound, at human CDK4/cyclin D3, the “CDK4 % Inhibition at 0.03 μM” value was determined as 0%. In addition, in the experiment with HCT-116 cell line, the “HCT-116 % Inhibition at 0.1 μM” value came out at 24% and the “HCT-116 % Inhibition at 0.25 μM” value was 64%.

The record behind these values is patent publication US6720346B2, “Thiazole benzamide derivatives and pharmaceutical compositions for inhibiting cell proliferation” (Agouron Pharmaceuticals, Inc., priority 2001, dated 2004).
